# Source: article PMC3058826 (Nature, 2010)
# Substitutions are numbered along the chain they refer to.
# Tests used:
# [1] = system: ERα, GREB1 distal ERE, MCF7 cells; experiment: ChIP of ERα at GREB1 ERE's; assay type: cell-based; conditions: 10 nM estradiol, six hours
# [2] = system: TRIM24, GREB1 distal ERE, MCF7 cells; experiment: ChIP of TRIM24 at GREB1 ERE's; assay type: cell-based; conditions: 10 nM estradiol, six hours
# [3] = biological target: T1, TRIM24 PHD-Bromo (F979A/N980A) (Homo sapiens, UniProt O15164, F979A/N980A); experiment: ITC binding of histone peptides
# T1 sequence (O15164 824-1006 F979A/N980A): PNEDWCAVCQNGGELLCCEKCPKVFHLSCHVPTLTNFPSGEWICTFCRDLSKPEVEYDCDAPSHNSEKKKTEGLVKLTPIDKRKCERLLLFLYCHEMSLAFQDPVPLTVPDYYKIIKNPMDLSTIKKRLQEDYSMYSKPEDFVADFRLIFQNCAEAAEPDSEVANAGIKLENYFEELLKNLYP
# TRIM24 PHD-Bromo (WT) = biological target: T2, TRIM24 PHD-Bromo (WT) (Homo sapiens, UniProt O15164); experiment: ITC binding of histone peptides; conditions: PHD-Bromo (bromodomain binding)
# T2 sequence (O15164 824-1006): T1 sequence (O15164 824-1006 F979A/N980A) with A156F, A157N
compound,measurement,setting,value
C[C@]12CC[C@@H]3c4ccc(O)cc4CC[C@H]3[C@@H]1CC[C@@H]2O [estradiol],increase of ERα binding,[1],7 fold
same,increase of TRIM24 binding,[2],6 fold
H3(13-32)K23ac: H3(13–32) peptide bearing acetylated K23; ITC values are those of the -Bio form,binding affinity in words,[3],loses most of the binding affinity
"H3(13-32)K27ac: H3(13–32) peptide, K27ac; ITC values are those of the -Bio form",binding affinity in words,TRIM24 PHD-Bromo (WT),weak binding affinity
